According to patent US20230257396A1, “MACROCYCLES AND THEIR USE” (BLOSSOMHILL THERAPEUTICS, INC., priority 2020, published 2023):

What was measured:
Experiment in all cases: KINOMEscan kinase binding assay (Eurofins/DiscoveRx), % Ctrl
Details in all cases: 1 μM
[1] = molecular target: T1, kinases (Homo sapiens, UniProt P36888, N841I)
T1 construct: purchased Eurofins/DiscoveRx; host or cells: E. coli BL21-derived host (T7 phage display) for most kinases; HEK-293 for the rest
T1 sequence (P36888 27-993 N841I): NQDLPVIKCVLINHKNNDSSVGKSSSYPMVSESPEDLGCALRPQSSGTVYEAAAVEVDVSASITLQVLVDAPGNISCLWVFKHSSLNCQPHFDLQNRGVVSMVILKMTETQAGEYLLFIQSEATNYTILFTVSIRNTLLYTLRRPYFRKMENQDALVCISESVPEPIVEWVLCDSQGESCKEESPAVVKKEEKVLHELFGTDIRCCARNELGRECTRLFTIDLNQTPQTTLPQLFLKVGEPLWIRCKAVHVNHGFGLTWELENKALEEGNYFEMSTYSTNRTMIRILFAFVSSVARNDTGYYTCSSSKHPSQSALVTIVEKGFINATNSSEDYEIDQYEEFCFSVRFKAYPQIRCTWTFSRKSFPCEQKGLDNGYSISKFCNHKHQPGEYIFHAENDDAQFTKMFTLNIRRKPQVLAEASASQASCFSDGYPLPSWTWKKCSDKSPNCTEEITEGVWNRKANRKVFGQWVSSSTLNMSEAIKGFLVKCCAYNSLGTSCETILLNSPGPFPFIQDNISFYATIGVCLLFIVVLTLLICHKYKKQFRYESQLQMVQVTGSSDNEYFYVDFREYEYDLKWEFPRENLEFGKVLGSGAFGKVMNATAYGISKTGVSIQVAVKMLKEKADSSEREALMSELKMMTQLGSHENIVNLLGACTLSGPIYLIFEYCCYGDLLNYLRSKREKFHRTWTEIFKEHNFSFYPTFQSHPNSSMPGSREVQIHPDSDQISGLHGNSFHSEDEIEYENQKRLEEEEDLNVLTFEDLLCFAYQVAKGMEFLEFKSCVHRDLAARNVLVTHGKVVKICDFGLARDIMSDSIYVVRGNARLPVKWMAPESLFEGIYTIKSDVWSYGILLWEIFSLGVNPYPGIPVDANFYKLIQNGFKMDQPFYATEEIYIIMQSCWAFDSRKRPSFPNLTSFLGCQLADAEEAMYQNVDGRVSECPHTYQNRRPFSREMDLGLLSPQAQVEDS
Summary of the method: (§1)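 Read-out is qPCR of kinase eluted from ligand-coated streptavidin beads after 1 h room-temperature competition with test compound. Values are % Ctrl at the tested concentration, lower meaning tighter binding.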

[2] = molecular target: T2, kinases (Homo sapiens, UniProt P00519, Y253F)
T2 construct: purchased Eurofins/DiscoveRx; host or cells: E. coli BL21-derived host (T7 phage display) for most kinases; HEK-293 for the rest
Summary of the method: as §1

[3] = molecular target: T3, kinases (Homo sapiens, UniProt P00519, E255K)
T3 construct: purchased Eurofins/DiscoveRx; host or cells: E. coli BL21-derived host (T7 phage display) for most kinases; HEK-293 for the rest
Summary of the method: as §1

[4] = molecular target: T4, kinases (Homo sapiens, UniProt P00533, G719S)
T4 construct: purchased Eurofins/DiscoveRx; host or cells: E. coli BL21-derived host (T7 phage display) for most kinases; HEK-293 for the rest
Summary of the method: as §1

[5] = molecular target: T5, kinases (Homo sapiens, UniProt P17948)
T5 construct: purchased Eurofins/DiscoveRx; host or cells: E. coli BL21-derived host (T7 phage display) for most kinases; HEK-293 for the rest
T5 sequence (P17948 27-1338): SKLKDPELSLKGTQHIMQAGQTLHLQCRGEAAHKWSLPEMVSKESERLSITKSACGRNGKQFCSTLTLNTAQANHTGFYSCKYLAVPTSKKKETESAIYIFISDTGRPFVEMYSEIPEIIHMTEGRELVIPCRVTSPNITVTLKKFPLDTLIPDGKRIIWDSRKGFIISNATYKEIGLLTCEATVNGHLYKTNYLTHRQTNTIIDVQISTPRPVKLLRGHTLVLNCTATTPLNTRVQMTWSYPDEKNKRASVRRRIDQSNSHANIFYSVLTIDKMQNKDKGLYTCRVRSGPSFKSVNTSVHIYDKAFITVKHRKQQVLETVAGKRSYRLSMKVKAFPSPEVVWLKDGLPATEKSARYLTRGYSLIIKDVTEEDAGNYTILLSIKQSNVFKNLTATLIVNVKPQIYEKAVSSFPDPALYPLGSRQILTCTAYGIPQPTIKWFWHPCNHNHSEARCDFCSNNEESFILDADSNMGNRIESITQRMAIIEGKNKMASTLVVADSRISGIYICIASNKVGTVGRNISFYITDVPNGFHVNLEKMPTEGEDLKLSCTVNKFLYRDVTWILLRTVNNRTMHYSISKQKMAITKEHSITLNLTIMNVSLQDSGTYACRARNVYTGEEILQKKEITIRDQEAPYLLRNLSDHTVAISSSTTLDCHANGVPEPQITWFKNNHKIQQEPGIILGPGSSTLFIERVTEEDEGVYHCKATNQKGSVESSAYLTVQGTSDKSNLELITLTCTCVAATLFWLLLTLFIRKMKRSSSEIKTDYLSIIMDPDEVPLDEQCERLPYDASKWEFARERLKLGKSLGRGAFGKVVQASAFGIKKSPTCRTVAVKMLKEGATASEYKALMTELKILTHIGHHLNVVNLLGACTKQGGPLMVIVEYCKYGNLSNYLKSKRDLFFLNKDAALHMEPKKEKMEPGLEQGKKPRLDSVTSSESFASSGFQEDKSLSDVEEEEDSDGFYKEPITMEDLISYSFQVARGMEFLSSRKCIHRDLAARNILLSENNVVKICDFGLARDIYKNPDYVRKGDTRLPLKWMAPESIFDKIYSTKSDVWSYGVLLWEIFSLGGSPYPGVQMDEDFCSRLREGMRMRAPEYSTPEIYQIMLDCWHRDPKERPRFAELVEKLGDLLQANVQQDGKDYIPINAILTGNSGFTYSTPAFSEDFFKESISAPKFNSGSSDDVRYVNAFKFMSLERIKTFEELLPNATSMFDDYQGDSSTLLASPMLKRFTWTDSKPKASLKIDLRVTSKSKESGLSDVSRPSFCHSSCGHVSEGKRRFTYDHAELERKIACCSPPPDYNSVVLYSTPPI
Summary of the method: as §1

[6] = molecular target: T6, kinases (Homo sapiens, UniProt P10721, A829P)
T6 construct: purchased Eurofins/DiscoveRx; host or cells: E. coli BL21-derived host (T7 phage display) for most kinases; HEK-293 for the rest
T6 sequence (P10721 26-976 A829P): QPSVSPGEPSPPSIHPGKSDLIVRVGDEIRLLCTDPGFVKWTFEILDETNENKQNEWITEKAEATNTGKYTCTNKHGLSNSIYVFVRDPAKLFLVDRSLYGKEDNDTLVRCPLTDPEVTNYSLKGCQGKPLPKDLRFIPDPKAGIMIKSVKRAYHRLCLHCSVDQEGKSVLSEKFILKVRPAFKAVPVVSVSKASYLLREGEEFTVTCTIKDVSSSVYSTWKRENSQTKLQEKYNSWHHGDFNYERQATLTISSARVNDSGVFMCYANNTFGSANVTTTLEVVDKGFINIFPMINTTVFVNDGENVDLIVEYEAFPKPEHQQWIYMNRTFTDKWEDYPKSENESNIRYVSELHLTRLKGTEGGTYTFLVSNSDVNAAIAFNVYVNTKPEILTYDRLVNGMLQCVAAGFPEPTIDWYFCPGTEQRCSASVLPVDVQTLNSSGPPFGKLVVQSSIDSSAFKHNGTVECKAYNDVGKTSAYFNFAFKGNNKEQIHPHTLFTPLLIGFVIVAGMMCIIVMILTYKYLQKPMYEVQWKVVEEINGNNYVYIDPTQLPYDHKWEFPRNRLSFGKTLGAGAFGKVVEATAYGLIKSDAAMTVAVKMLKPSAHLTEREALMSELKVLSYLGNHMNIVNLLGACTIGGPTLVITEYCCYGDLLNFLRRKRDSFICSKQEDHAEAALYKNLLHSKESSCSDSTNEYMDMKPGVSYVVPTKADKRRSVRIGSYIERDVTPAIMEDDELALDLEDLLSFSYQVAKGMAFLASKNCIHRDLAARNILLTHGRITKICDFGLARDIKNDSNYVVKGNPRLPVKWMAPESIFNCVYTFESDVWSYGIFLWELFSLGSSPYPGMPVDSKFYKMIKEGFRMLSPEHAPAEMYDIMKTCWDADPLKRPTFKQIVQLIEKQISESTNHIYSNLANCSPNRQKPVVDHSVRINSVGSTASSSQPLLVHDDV
Summary of the method: as §1

[7] = molecular target: T7, kinases (Homo sapiens, UniProt P00519, T315I)
T7 construct: purchased Eurofins/DiscoveRx; host or cells: E. coli BL21-derived host (T7 phage display) for most kinases; HEK-293 for the rest
Summary of the method: as §1

% Ctrl, FLT3(N841I) ([1]; FLT3(N841I)) [% Ctrl]	% Ctrl, ABL1(Y253F)-phosphorylated ([2]; ABL1(Y253F)-phosphorylated) [% Ctrl]	% Ctrl, ABL1(E255K)-phosphorylated ([3]; ABL1(E255K)-phosphorylated) [% Ctrl]	% Ctrl, EGFR(G719S) ([4]; EGFR(G719S)) [% Ctrl]	% Ctrl, FLT1 ([5]; FLT1) [% Ctrl]	% Ctrl, KIT(A829P) ([6]; KIT(A829P)) [% Ctrl]	% Ctrl, ABL1(T315I)-nonphosphorylated ([7]; ABL1(T315I)-nonphosphorylated) [% Ctrl]	% Ctrl, ABL1(T315I)-phosphorylated ([7]; ABL1(T315I)-phosphorylated) [% Ctrl]	% Ctrl, FLT3(N841I) ([1]; target FLT3(N841I)) [% Ctrl]	% Ctrl, ABL1(Y253F)-phosphorylated ([2]; target ABL1(Y253F)-phosphorylated) [% Ctrl]	% Ctrl, ABL1(E255K)-phosphorylated ([3]; target ABL1(E255K)-phosphorylated) [% Ctrl]	% Ctrl, EGFR(G719S) ([4]; target EGFR(G719S)) [% Ctrl]	% Ctrl, FLT1 ([5]; target FLT1) [% Ctrl]	% Ctrl, KIT(A829P) ([6]; target KIT(A829P)) [% Ctrl]	% Ctrl, ABL1(T315I)-nonphosphorylated ([7]; target ABL1(T315I)-nonphosphorylated) [% Ctrl]	% Ctrl, ABL1(T315I)-phosphorylated ([7]; target ABL1(T315I)-phosphorylated) [% Ctrl]	Compound
49	60	64	98	88	75	81	69									Cc1cc2c([nH]1)/C=C1\C(=O)Nc3cc(Cl)c(cc31)OCCO[C@@H](C(=O)N(C)C)CN(C)C2=O [Ex. 137, [7R,16a(17)Z]-19-chloro-N,N,2,5-tetramethyl-4,16-dioxo-4,5,6,7,9,10,15,16-octahydro-1H-12,14-(ethanediylidene)dipyrrolo[3,2-i:3′,4′-l][1,4,7]dioxazacyclopentadecine-7-carboxamide]
								39	78	86	58	82	95	90	85	Cc1cc2c([nH]1)/C=C1\C(=O)Nc3ccc(cc31)-c1c(noc1C(C)C)COCCN(C)C2=O [Ex. 161, [3a(4)Z]-9-methyl-16-(propan-2-yl)-10,11-dihydro-2H,13H-1,17-(ethanediylidene)[1,2]oxazolo[4,3-m]dipyrrolo[3,2-f:3′,4′-i][1,4]oxazacyclopentadecine-3,8(5H,9H)-dione]
